Data published in BindingDB's records for doi:10.1016/j.bmcl.2010.11.016 (Chosun University, 2011).

Columns and labels:
[1] = test system: wild type H1N1 swine influenza virus neuraminidase; assay: Inhibition of wild type H1N1 swine influenza virus neuraminidase activity expressed in HEK293T cells after 2 hrs by spectrofluorometry
[2] = test system: Influenza A H9N2 virus neuraminidase; assay: Inhibition of Influenza A H9N2 virus neuraminidase activity after 2 hrs by spectrofluorometry

O=C(C=Cc1ccc(O)cc1)c1ccc(O)cc1O
IC50 [1]: 13.6 µM | IC50 [2]: 37.8 µM
